Test results as given in patent US11497212B2, “Substituted thiophenyl uracils, salts thereof and the use thereof as herbicidal agents” (Syngenta Crop Protection AG, priority 2017, dated 2022).

Key:
Assay type in all cases: in vivo
Veronica persica [1] = test: Herbicidal action pre-emergence (greenhouse pot trial); details: application rate 320 g/ha
Summary of the method: (§1)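 In this test the compounds, as suspensions or emulsions in water plus 0.5% additive, are sprayed onto the soil layer covering seeds at 320 g/ha or lower. Scoring happens visually after about three weeks under good greenhouse growth conditions.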

Lolium rigidum [2] = test: as above; details: application rate 320 g/ha
Summary of the method: as §1

Cyperus esculentus = test: as above; details: application rate 320 g/ha
Summary of the method: as §1

Echinochloa crus-galli [3] = test: as above; details: application rate 320 g/ha, scored after about 3 weeks
Summary of the method: as §1

Alopecurus myosuroides [4] = test: as above; details: application rate 320 g/ha, scored after about 3 weeks
Summary of the method: as §1

Amaranthus retroflexus [5] = test: as above; details: application rate 320 g/ha, scored after about 3 weeks
Summary of the method: as §1

Pharbitis purpurea [6] = test: as above; details: application rate 320 g/ha
Summary of the method: as §1

Abutilon theophrasti [7] = test: as above; details: application rate 320 g/ha, scored after about 3 weeks
Summary of the method: as §1

Viola tricolor [8] = test: as above; details: application rate 320 g/ha, scored after about 3 weeks
Summary of the method: as §1

Stellaria media [9] = test: as above; details: application rate 320 g/ha, scored after about 3 weeks
Summary of the method: as §1

Setaria viridis [10] = test: as above; details: application rate 320 g/ha, scored after about 3 weeks
Summary of the method: as §1

Hordeum murinum [11] = test: as above; details: application rate 320 g/ha
Summary of the method: as §1

Avena fatua = test: as above; details: application rate 320 g/ha
Summary of the method: as §1

Matricaria inodora [12] = test: as above; details: application rate 320 g/ha, scored after about 3 weeks
Summary of the method: as §1

Oryza sativa = test: Crop compatibility post-emergence (greenhouse pot trial)
Summary of the method: (§2)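 Compatibility is expressed as visually scored percent injury, where 0% means no difference from untreated controls and 100% means dead plants, assessed about 3 weeks after a foliar spray at 600 L/ha with 0.5% additive on one-leaf-stage pot plants in sandy loam.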

Triticum aestivum = test: as above
Summary of the method: as §2

Veronica persica [13] = test: Herbicidal action post-emergence (greenhouse pot trial); details: application rate 80 g/ha
Summary of the method: (§3)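 Foliar application post-emergence; water volume 600 L/ha, additive 0.5%, dose ≤80 g/ha. Scoring: visual, ~3 wk, relative to untreated (0–100%).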

Lolium rigidum [14] = test: as above; details: application rate 80 g/ha, scored visually after about 3 weeks vs untreated controls
Summary of the method: as §3

Echinochloa crus-galli [15] = test: as above; details: application rate 80 g/ha, scored visually after about 3 weeks vs untreated controls
Summary of the method: as §3

Alopecurus myosuroides [16] = test: as above; details: application rate 80 g/ha, scored visually after about 3 weeks vs untreated controls
Summary of the method: as §3

Amaranthus retroflexus [17] = test: as above; details: application rate 80 g/ha, scored visually after about 3 weeks vs untreated controls
Summary of the method: as §3

Pharbitis purpurea [18] = test: as above; details: application rate 80 g/ha
Summary of the method: as §3

Abutilon theophrasti [19] = test: as above; details: application rate 80 g/ha, scored visually after about 3 weeks vs untreated controls
Summary of the method: as §3

Viola tricolor [20] = test: as above; details: application rate 80 g/ha
Summary of the method: as §3

Stellaria media [21] = test: as above; details: application rate 80 g/ha, scored visually after about 3 weeks vs untreated controls
Summary of the method: as §3

Setaria viridis [22] = test: as above; details: application rate 80 g/ha, scored visually after about 3 weeks vs untreated controls
Summary of the method: as §3

Polygonum convolvulus = test: as above; details: application rate 80 g/ha, scored visually after about 3 weeks vs untreated controls
Summary of the method: as §3

Matricaria inodora [23] = test: as above; details: application rate 80 g/ha, scored visually after about 3 weeks vs untreated controls
Summary of the method: as §3

Zea mays [24] = test: Crop compatibility post-emergence (greenhouse pot trial)
Summary of the method: as §2

Zea mays [25] = test: Crop compatibility pre-emergence (greenhouse pot trial); details: effect vs untreated controls
Summary of the method: (§4)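 Compounds, formulated as WP or EC plus 0.5% additive, applied to covering soil after sowing at a water rate of 600 L/ha. After roughly 3 weeks under greenhouse conditions, visual % injury to crops rated against untreated plants, 0% meaning like control.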

Digitaria sanguinalis [26] = test: Herbicidal action pre-emergence (greenhouse pot trial); details: application rate 80 g/ha
Summary of the method: as §1

Hordeum murinum [27] = test: Herbicidal action post-emergence (greenhouse pot trial); details: application rate 80 g/ha, scored visually after about 3 weeks vs untreated controls
Summary of the method: as §3

Digitaria sanguinalis [28] = test: as above; details: application rate 80 g/ha
Summary of the method: as §3

Glycine max [29] = test: Crop compatibility pre-emergence (greenhouse pot trial); details: application rate 80 g/ha, effect vs untreated controls
Summary of the method: as §4

Glycine max [30] = test: Crop compatibility post-emergence (greenhouse pot trial)
Summary of the method: as §2

Row | Compound | Veronica persica (Efficacy in %) (Veronica persica [1]) [%] | Lolium rigidum (Efficacy in %) (Lolium rigidum [2]) [%] | Cyperus esculentus (Efficacy in %) (Cyperus esculentus) [%] | Echinochloa crus-galli (Efficacy in %) (Echinochloa crus-galli [3]) [%] | Alopecurus myosuroides (Efficacy in %) (Alopecurus myosuroides [4]) [%] | Amaranthus retroflexus (Efficacy in %) (Amaranthus retroflexus [5]) [%] | Pharbitis purpurea (Efficacy in %) (Pharbitis purpurea [6]) [%] | Abutilon theophrasti (Efficacy in %) (Abutilon theophrasti [7]) [%] | Viola tricolor (Efficacy in %) (Viola tricolor [8]) [%] | Stellaria media (Efficacy in %) (Stellaria media [9]) [%] | Setaria viridis (Efficacy in %) (Setaria viridis [10]) [%] | Hordeum murinum (Efficacy in %) (Hordeum murinum [11]) [%] | Matricaria inodora (Efficacy in %) (Matricaria inodora [12]) [%] | Veronica persica (Efficacy in %) (Veronica persica [13]) [%] | Amaranthus retroflexus (Efficacy in %) (Amaranthus retroflexus [17]) [%] | Pharbitis purpurea (Efficacy in %) (Pharbitis purpurea [18]) [%] | Abutilon theophrasti (Efficacy in %) (Abutilon theophrasti [19]) [%] | Viola tricolor (Efficacy in %) (Viola tricolor [20]) [%] | Polygonum convolvulus (Efficacy in %) (Polygonum convolvulus) [%] | Matricaria inodora (Efficacy in %) (Matricaria inodora [23]) [%] | other results
1 | CC(Sc1cc(-n2c(=O)cc(C(F)(F)F)n(C)c2=O)c(F)cc1Cl)C(=O)NCC1CCCS1(=O)=O (stereo not shown) [I.1-275] | 100 | 90 | 80 | 100 | 100 | 100 | 100 | 100 | 100 | 100 | 100 | 90 | 100 | 100 | 100 | 100 | 100 | 100 | 100 | 100 | Avena fatua (Efficacy in %) (Avena fatua): 100%; Oryza sativa (Efficacy in %) (Oryza sativa; application rate 20 g/ha): 20%; Triticum aestivum (Efficacy in %) (Triticum aestivum; application rate 20 g/ha): 20%; Lolium rigidum (Efficacy in %) (Lolium rigidum [14]): 80%; Echinochloa crus-galli (Efficacy in %) (Echinochloa crus-galli [15]): 90%; Alopecurus myosuroides (Efficacy in %) (Alopecurus myosuroides [16]): 90%; Stellaria media (Efficacy in %) (Stellaria media [21]): 100%; Setaria viridis (Efficacy in %) (Setaria viridis [22]): 100%
2 | COCCOC(=O)C(C)Sc1cc(-n2c(=O)cc(C(F)(F)F)n(C)c2=O)c(F)cc1Cl (stereo not shown) [I.1-1] | 100 | 80 | 100 | 100 | 80 | 100 | 100 | 100 | 100 | 100 | 100 | 90 | 100 | 100 | 100 | 100 | 100 | 100 | 100 | 100 | Avena fatua (Efficacy in %) (Avena fatua): 90%; Oryza sativa (Efficacy in %) (Oryza sativa; application rate 5 g/ha): 20%; Zea mays (Efficacy in %) (Zea mays [24]; application rate 20 g/ha): 20%; Triticum aestivum (Efficacy in %) (Triticum aestivum; application rate 5 g/ha): 20%; Lolium rigidum (Efficacy in %) (Lolium rigidum [14]): 90%; Echinochloa crus-galli (Efficacy in %) (Echinochloa crus-galli [15]): 100%; Alopecurus myosuroides (Efficacy in %) (Alopecurus myosuroides [16]): 80%; Stellaria media (Efficacy in %) (Stellaria media [21]): 100%; Setaria viridis (Efficacy in %) (Setaria viridis [22]): 100%; Zea mays (Efficacy in %) (Zea mays [25]; application rate 20 g/ha): 20%
3 | CCOCCCOC(=O)C(C)Sc1cc(-n2c(=O)cc(C(F)(F)F)n(C)c2=O)c(F)cc1Cl (stereo not shown) [I.1-27] | 100 | 90 | – | 100 | 80 | 100 | 100 | 100 | 100 | 100 | 100 | 80 | 100 | 100 | 100 | 100 | 100 | 100 | 100 | 100 | Digitaria sanguinalis (Efficacy in %) (Digitaria sanguinalis [26]): 100%; Oryza sativa (Efficacy in %) (Oryza sativa; application rate 5 g/ha): 10%; Triticum aestivum (Efficacy in %) (Triticum aestivum; application rate 5 g/ha): 10%; Lolium rigidum (Efficacy in %) (Lolium rigidum [14]): 80%; Echinochloa crus-galli (Efficacy in %) (Echinochloa crus-galli [15]): 100%; Alopecurus myosuroides (Efficacy in %) (Alopecurus myosuroides [16]): 90%; Stellaria media (Efficacy in %) (Stellaria media [21]): 100%; Setaria viridis (Efficacy in %) (Setaria viridis [22]): 100%; Hordeum murinum (Efficacy in %) (Hordeum murinum [27]): 80%; Digitaria sanguinalis (Efficacy in %) (Digitaria sanguinalis [28]): 100%; Glycine max (Efficacy in %) (Glycine max [29]): 20%; Zea mays (Efficacy in %) (Zea mays [25]; application rate 80 g/ha): 0%
4 | COCCOC(=O)CSc1cc(-n2c(=O)cc(C(F)(F)F)n(C)c2=O)c(F)cc1Cl [I.8-1] | 100 | 90 | 90 | 100 | – | 100 | 100 | 100 | 100 | 100 | 100 | 90 | 100 | 100 | 100 | 100 | 100 | 100 | 100 | 100 | Avena fatua (Efficacy in %) (Avena fatua): 80%; Glycine max (Efficacy in %) (Glycine max [30]; application rate 5 g/ha): 20%; Oryza sativa (Efficacy in %) (Oryza sativa; application rate 5 g/ha): 10%; Zea mays (Efficacy in %) (Zea mays [24]; application rate 5 g/ha): 20%; Echinochloa crus-galli (Efficacy in %) (Echinochloa crus-galli [15]): 100%; Stellaria media (Efficacy in %) (Stellaria media [21]): 100%; Setaria viridis (Efficacy in %) (Setaria viridis [22]): 100%
5 | CC(Sc1cc(-n2c(=O)cc(C(F)(F)F)n(C)c2=O)c(F)cc1Cl)C(=O)NCC1CS(=O)(=O)CCO1 (stereo not shown) [I.1-333] | 100 | 100 | 80 | 100 | 100 | 100 | 100 | 100 | 100 | 100 | 90 | 100 | 100 | 80 | 100 | 80 | 100 | 100 | 100 | 100 | Avena fatua (Efficacy in %) (Avena fatua): 100%; Glycine max (Efficacy in %) (Glycine max [30]; application rate 20 g/ha): 20%; Oryza sativa (Efficacy in %) (Oryza sativa; application rate 80 g/ha): 0%; Zea mays (Efficacy in %) (Zea mays [24]; application rate 80 g/ha): 0%; Triticum aestivum (Efficacy in %) (Triticum aestivum; application rate 20 g/ha): 10%; Glycine max (Efficacy in %) (Glycine max [29]): 0%; Zea mays (Efficacy in %) (Zea mays [25]; application rate 80 g/ha): 20%
